Experimental data published in PMC7180948, “New Insights into 4-Anilinoquinazolines as Inhibitors of Cardiac Troponin I–Interacting Kinase (TNNi3K)” (Molecules, 2020).

Key:
Assay in all cases: biochemical
Set-up in all cases: KINOMEscan competition binding panel (Eurofins DiscoverX), single concentration, percent inhibition
Conditions in all cases: read-out: 15 at 1 µM % inhibition
[1] = target: ALK(C1156Y) (Homo sapiens, UniProt Q9UM73, C1156Y)
Summary of the method: (§1)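 Kinome-wide profiling (KINOMEscan, >400 human kinases) was run at 1 µM compound.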

[2] = target: BRAF(V600E) (Homo sapiens, UniProt P15056, V600E)
Summary of the method: as §1

[3] = target: EGFR(L858R,T790M) (Homo sapiens, UniProt P00533, L858R/T790M)
Summary of the method: as §1

[4] = target: EPHB3 (Homo sapiens, UniProt P54753)
Summary of the method: as §1

[5] = target: EPHB6 (Homo sapiens, UniProt O15197)
Summary of the method: as §1

[6] = target: T1, ERK1 (Homo sapiens, UniProt P27361)
T1 construct: gene MAPK3
Summary of the method: as §1

[7] = target: FLT3(D835V) (Homo sapiens, UniProt P36888, D835V)
Summary of the method: as §1

[8] = target: T2, IKK-epsilon (Homo sapiens, UniProt Q14164)
T2 construct: gene IKBKE
Summary of the method: as §1

[9] = target: MKNK1 (Homo sapiens, UniProt Q9BUB5)
Summary of the method: as §1

[10] = target: T3, MST2 (Homo sapiens, UniProt Q13188)
T3 construct: gene STK3
Summary of the method: as §1

[11] = target: NEK4 (Homo sapiens, UniProt P51957)
Summary of the method: as §1

[12] = target: NEK5 (Homo sapiens, UniProt Q6P3R8)
Summary of the method: as §1

[13] = target: PAK1 (Homo sapiens, UniProt Q13153)
Summary of the method: as §1

[14] = target: PAK4 (Homo sapiens, UniProt O96013)
Summary of the method: as §1

[15] = target: T4, PCTK3 (Homo sapiens, UniProt Q07002)
T4 construct: gene CDK18
T4 sequence (Q07002 whole entry): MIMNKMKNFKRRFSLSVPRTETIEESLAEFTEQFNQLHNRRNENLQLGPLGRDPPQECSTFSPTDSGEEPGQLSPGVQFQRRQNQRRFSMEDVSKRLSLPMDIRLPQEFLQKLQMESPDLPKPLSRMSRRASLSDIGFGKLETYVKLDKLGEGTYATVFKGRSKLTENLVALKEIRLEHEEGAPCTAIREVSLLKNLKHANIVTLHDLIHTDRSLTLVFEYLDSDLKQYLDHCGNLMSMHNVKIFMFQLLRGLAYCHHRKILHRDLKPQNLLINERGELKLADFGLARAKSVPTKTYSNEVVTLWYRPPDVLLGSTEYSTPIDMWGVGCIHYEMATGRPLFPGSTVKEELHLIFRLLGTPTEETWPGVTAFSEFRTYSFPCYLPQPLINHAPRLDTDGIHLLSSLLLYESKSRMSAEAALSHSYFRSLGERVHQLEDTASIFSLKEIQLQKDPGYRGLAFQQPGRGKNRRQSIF
Summary of the method: as §1

[16] = target: PRKCD (Homo sapiens, UniProt Q05655)
Summary of the method: as §1

[17] = target: RIPK4 (Homo sapiens, UniProt P57078)
Chain of RIPK4 (P57078 whole entry): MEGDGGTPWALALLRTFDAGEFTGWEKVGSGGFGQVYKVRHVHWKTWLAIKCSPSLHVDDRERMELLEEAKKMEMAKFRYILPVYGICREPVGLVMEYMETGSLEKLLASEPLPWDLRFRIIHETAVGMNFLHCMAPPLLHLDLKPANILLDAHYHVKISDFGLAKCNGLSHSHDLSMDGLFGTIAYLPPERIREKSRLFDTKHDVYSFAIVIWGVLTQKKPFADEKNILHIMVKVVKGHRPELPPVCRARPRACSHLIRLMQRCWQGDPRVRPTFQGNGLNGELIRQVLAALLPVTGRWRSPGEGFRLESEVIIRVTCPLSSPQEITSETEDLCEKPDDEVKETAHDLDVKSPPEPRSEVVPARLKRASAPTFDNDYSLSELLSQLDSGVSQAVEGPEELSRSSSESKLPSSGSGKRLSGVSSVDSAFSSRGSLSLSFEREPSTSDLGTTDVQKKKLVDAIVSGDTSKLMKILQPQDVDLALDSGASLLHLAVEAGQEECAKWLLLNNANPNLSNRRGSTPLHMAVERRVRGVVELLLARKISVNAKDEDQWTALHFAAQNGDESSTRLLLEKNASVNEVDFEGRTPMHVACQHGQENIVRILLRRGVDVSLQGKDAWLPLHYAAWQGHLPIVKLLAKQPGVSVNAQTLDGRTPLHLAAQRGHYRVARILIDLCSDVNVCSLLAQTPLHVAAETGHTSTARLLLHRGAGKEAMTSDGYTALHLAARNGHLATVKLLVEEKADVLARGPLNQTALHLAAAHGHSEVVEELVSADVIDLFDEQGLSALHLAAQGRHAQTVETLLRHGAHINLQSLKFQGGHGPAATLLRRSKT
Summary of the method: as §1

[18] = target: ROS1 (Homo sapiens, UniProt P08922)
Summary of the method: as §1

[19] = target: T5, RPS6KA5(Kin.Dom.1-N-terminal) (Homo sapiens, UniProt O75582)
T5 construct: Kin.Dom.1-N-terminal
Summary of the method: as §1

[20] = target: T6, RSK2(Kin.Dom.1-N-terminal) (Homo sapiens, UniProt P51812)
T6 construct: gene RPS6KA3; Kin.Dom.1-N-terminal
T6 sequence (P51812 whole entry): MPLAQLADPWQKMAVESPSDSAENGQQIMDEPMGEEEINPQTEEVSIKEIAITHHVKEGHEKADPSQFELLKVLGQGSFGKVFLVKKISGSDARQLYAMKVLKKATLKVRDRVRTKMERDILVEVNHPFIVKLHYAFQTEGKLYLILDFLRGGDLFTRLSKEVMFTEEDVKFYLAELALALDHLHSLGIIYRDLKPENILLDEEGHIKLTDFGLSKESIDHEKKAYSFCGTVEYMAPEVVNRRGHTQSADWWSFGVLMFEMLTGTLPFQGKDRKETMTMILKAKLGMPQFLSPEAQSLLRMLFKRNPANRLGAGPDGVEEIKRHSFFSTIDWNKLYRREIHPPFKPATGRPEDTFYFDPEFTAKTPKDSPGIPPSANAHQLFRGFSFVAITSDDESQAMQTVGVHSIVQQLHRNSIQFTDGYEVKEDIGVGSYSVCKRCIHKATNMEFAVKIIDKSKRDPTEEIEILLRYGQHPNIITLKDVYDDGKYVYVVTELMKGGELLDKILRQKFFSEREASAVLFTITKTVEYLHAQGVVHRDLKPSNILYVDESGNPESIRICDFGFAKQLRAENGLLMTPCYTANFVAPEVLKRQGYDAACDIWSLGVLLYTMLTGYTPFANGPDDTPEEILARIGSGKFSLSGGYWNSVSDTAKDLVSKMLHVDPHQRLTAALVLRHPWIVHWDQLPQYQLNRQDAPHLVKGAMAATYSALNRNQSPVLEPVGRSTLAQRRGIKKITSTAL
Summary of the method: as §1

[21] = target: T7, SGK (Homo sapiens, UniProt O00141)
T7 construct: gene SGK1
T7 sequence (O00141 whole entry): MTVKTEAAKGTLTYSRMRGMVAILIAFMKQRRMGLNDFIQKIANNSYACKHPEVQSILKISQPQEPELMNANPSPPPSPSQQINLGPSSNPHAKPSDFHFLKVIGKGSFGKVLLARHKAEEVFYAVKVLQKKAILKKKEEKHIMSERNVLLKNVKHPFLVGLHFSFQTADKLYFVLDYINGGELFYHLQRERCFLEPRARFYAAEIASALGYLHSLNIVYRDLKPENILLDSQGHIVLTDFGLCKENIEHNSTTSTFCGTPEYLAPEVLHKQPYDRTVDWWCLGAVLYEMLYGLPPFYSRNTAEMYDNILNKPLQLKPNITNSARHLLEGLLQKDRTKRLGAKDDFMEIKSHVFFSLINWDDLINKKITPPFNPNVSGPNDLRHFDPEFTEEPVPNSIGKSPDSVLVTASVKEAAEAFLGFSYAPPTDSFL
Summary of the method: as §1

[22] = target: TAOK3 (Homo sapiens, UniProt Q9H2K8)
Chain of TAOK3 (Q9H2K8 whole entry): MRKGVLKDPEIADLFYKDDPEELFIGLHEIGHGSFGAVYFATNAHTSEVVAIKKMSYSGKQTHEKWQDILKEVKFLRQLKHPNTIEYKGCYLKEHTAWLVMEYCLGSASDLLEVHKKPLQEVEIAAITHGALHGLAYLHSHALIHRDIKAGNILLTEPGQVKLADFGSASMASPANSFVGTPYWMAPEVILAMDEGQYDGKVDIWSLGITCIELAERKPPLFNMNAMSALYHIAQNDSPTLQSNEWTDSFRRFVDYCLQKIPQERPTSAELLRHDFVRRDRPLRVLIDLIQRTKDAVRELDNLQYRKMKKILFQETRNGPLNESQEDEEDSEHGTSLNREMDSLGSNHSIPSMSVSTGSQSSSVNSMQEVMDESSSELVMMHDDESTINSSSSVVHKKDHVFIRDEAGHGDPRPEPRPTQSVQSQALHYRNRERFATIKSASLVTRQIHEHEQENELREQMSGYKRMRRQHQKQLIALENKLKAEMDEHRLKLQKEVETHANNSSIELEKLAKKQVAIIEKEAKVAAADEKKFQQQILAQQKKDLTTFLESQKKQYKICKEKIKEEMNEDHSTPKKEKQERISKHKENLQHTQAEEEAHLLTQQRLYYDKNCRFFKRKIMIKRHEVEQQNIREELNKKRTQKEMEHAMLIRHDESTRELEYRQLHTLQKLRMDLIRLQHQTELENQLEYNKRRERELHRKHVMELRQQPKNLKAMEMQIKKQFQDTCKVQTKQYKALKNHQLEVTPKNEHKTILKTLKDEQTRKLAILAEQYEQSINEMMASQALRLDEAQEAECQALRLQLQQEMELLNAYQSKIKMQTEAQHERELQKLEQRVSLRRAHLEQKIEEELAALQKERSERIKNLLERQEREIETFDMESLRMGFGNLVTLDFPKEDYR
Summary of the method: as §1

[23] = target: TGFBR2 (Homo sapiens, UniProt P37173)
Summary of the method: as §1

[24] = target: ULK3 (Homo sapiens, UniProt Q6PHR2)
Summary of the method: as §1

Chain of ALK(C1156Y) (Q9UM73 whole entry C1156Y): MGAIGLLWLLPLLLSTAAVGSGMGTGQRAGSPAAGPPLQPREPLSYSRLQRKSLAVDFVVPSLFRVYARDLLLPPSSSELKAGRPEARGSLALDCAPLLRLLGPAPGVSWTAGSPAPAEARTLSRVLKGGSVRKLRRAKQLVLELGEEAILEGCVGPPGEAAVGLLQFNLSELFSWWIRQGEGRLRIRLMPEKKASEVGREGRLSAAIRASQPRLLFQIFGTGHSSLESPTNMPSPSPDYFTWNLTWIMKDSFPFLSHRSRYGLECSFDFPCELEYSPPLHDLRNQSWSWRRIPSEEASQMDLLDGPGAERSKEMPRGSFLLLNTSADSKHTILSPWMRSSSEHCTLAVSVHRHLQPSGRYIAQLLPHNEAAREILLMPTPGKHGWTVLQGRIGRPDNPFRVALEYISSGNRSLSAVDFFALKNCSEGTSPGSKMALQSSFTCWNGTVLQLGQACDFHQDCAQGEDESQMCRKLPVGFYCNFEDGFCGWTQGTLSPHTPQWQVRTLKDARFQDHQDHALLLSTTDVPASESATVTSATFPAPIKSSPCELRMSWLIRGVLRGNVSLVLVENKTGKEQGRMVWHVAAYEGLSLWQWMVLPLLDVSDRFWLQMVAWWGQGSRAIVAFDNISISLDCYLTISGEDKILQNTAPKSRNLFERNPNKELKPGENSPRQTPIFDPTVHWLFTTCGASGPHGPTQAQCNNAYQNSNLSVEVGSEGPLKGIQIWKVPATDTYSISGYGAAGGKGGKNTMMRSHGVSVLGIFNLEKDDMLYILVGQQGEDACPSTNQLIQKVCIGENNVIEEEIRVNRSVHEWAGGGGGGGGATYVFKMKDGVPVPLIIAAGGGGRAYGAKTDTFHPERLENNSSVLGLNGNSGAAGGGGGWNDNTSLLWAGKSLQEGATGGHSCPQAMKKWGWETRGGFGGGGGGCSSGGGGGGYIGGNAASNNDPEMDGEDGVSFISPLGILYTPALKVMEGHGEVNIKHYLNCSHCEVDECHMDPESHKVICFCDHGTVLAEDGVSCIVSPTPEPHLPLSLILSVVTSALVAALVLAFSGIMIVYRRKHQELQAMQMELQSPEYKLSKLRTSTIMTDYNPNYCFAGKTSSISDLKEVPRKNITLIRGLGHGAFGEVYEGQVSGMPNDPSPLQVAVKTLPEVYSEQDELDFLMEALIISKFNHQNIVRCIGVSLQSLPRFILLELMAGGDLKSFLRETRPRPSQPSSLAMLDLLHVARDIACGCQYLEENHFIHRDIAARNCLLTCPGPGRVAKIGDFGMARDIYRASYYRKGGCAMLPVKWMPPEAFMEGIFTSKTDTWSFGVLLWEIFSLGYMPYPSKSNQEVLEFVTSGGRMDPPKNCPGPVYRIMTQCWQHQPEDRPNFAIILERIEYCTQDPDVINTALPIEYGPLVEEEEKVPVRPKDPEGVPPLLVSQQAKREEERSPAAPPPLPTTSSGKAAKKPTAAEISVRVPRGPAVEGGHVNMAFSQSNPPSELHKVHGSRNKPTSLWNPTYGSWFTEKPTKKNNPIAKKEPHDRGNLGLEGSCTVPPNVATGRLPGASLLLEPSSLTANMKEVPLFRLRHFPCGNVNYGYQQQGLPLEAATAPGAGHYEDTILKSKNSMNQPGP

inhibition at 1 µM [1]: 4%
inhibition at 1 µM [2]: 24%
inhibition at 1 µM [3]: 16%
inhibition at 1 µM [4]: 0%
inhibition at 1 µM [5]: 0%
inhibition at 1 µM [6]: 0%
inhibition at 1 µM [7]: 37%
inhibition at 1 µM [8]: 0%
inhibition at 1 µM [9]: 4%
inhibition at 1 µM [10]: 4%
inhibition at 1 µM [11]: 13%
inhibition at 1 µM [12]: 0%
inhibition at 1 µM [13]: 1%
inhibition at 1 µM [14]: 0%
inhibition at 1 µM [15]: 0%
inhibition at 1 µM [16]: 1%
inhibition at 1 µM [17]: 8%
inhibition at 1 µM [18]: 0%
inhibition at 1 µM [19]: 0%
inhibition at 1 µM [20]: 15%
inhibition at 1 µM [21]: 39%
inhibition at 1 µM [22]: 16%
inhibition at 1 µM [23]: 8%
inhibition at 1 µM [24]: 23%
Compound: CNS(=O)(=O)c1ccc(N(C)C)c(Nc2nc(C)nc3cc(OC)c(OC)cc23)c1 [compound 15, 3-((6,7-dimethoxy-2-methylquinazolin-4-yl)amino)-4-(dimethylamino)-N-methylbenzenesulfonamide]
